Source: ChEMBL document CHEMBL5303573, “Mapping human microbiome drug metabolism by gut bacteria and their genes” (Nature, 2019)

Key:
[1] = The drug is tested on Collinsella intestinalis strain: DSM13280 for biotransformation. The drug concentrations were measured before and after a 12-h incubation by liquid-chromatography-coupled mass spectrometry (LC–MS); conditions: 2 µM
[2] = The drug is tested on Eggerthella lenta strain: ATCC25559 for biotransformation. The drug concentrations were measured before and after a 12-h incubation by liquid-chromatography-coupled mass spectrometry (LC–MS); conditions: 2 µM
[3] = The drug is tested on Alistipes indistinctus strain: DSM22520 for biotransformation. The drug concentrations were measured before and after a 12-h incubation by liquid-chromatography-coupled mass spectrometry (LC–MS); conditions: 2 µM
[4] = The drug is tested on Bacteroides fragilis strain: T(B)9 for biotransformation. The drug concentrations were measured before and after a 12-h incubation by liquid-chromatography-coupled mass spectrometry (LC–MS); conditions: 2 µM
[5] = The drug is tested on Bacteroides fragilis strain: ATCC43859 for biotransformation. The drug concentrations were measured before and after a 12-h incubation by liquid-chromatography-coupled mass spectrometry (LC–MS); conditions: 2 µM
[6] = The drug is tested on Clostridium hathewayi strain: DSM13479 for biotransformation. The drug concentrations were measured before and after a 12-h incubation by liquid-chromatography-coupled mass spectrometry (LC–MS); conditions: hungatella hathewayi, 2 µM
[7] = The drug is tested on Clostridium spiroforme strain: DSM1552 for biotransformation. The drug concentrations were measured before and after a 12-h incubation by liquid-chromatography-coupled mass spectrometry (LC–MS); conditions: thomasclavelia spiroformis, 2 µM
[8] = The drug is tested on Eubacterium biforme strain: DSM3989 for biotransformation. The drug concentrations were measured before and after a 12-h incubation by liquid-chromatography-coupled mass spectrometry (LC–MS); conditions: holdemanella biformis, 2 µM
[9] = The drug is tested on Proteus penneri strain: ATCC35198 for biotransformation. The drug concentrations were measured before and after a 12-h incubation by liquid-chromatography-coupled mass spectrometry (LC–MS); conditions: 2 µM
[10] = The drug is tested on Providencia alcalifaciens strain: DSM30120 for biotransformation. The drug concentrations were measured before and after a 12-h incubation by liquid-chromatography-coupled mass spectrometry (LC–MS); conditions: 2 µM
[11] = The drug is tested on Salmonella typhimurium strain: LT2 for biotransformation. The drug concentrations were measured before and after a 12-h incubation by liquid-chromatography-coupled mass spectrometry (LC–MS); conditions: salmonella enterica subsp. enterica, 2 µM
[12] = parabacteroides johnsonii, 12 h, 2 µM
Description: The drug is tested on Parabacteroides johnsonii strain: DSM18315 for biotransformation. The drug concentrations were measured before and after a 12-h incubation by liquid-chromatography-coupled mass spectrometry (LC–MS)

[13] = clostridioides difficile, 12 h, 2 µM
Description: The drug is tested on Clostridium difficile strain: 120 for biotransformation. The drug concentrations were measured before and after a 12-h incubation by liquid-chromatography-coupled mass spectrometry (LC–MS)

[14] = victivallis vadensis, 12 h, 2 µM
[15] = akkermansia muciniphila, 12 h, 2 µM
[16] = target: T1, Acyltransferase 3 domain-containing protein (Phocaeicola dorei, UniProt B6W2J3); experiment: (§1) The drug is tested on Bacteroides dorei strain: DSM17855 for biotransformation. The drug concentrations were measured before and after a 12-h incubation by liquid-chromatography-coupled mass spectrometry (LC–MS); format: ADME; set-up: dose 2 uM; conditions: 2 µM
T1 sequence (B6W2J3 whole entry): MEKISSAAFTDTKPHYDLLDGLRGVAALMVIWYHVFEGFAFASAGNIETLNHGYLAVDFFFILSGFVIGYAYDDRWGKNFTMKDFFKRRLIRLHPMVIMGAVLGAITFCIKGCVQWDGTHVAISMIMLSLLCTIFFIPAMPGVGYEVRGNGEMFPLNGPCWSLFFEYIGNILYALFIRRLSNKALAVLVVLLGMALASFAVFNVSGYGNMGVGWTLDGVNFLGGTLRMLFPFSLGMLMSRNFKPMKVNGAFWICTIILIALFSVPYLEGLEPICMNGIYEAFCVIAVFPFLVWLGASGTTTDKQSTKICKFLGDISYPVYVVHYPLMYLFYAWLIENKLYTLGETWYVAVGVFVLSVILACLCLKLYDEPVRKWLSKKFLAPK

Esterase = target: T2, Esterase (Phocaeicola dorei, UniProt B6W2J6); experiment: as §1; format: ADME; set-up: dose 2 uM; conditions: 2 µM
T2 sequence (B6W2J6 whole entry): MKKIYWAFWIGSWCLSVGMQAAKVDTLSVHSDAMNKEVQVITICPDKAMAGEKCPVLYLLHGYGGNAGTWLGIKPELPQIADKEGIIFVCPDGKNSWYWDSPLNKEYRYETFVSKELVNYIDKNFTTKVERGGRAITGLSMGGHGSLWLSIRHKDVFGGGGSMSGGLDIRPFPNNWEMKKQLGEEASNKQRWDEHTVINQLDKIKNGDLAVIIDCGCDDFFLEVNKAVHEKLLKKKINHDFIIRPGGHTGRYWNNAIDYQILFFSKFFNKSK

[17] = target: T3, Nitroreductase domain-containing protein (Phocaeicola dorei, UniProt B6W3P3); experiment: as §1; format: ADME; set-up: dose 2 uM; conditions: 2 µM
T3 sequence (B6W3P3 whole entry): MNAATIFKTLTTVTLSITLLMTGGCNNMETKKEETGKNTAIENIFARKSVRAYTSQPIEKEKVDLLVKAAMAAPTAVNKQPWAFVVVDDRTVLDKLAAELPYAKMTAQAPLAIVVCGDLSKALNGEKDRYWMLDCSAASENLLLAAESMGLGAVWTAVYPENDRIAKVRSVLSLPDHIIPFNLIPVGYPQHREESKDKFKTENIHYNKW

[18] = target: T4, SGNH hydrolase-type esterase domain-containing protein (Phocaeicola dorei, UniProt B6W1J1); experiment: as §1; format: ADME; set-up: dose 2 uM; conditions: 2 µM
T4 sequence (B6W1J1 whole entry): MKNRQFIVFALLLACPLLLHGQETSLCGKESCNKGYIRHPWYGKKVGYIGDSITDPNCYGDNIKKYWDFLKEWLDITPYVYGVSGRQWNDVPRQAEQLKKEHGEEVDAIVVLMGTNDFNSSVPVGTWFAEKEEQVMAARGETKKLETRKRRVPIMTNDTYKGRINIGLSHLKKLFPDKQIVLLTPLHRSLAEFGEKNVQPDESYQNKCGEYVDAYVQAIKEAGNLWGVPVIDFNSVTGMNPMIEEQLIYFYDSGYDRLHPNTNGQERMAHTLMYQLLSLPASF

[19] = target: T5, Steroid 5-alpha reductase C-terminal domain-containing protein (Phocaeicola dorei, UniProt B6W0N3); experiment: as §1; format: ADME; set-up: dose 2 uM; conditions: 2 µM
T5 sequence (B6W0N3 whole entry): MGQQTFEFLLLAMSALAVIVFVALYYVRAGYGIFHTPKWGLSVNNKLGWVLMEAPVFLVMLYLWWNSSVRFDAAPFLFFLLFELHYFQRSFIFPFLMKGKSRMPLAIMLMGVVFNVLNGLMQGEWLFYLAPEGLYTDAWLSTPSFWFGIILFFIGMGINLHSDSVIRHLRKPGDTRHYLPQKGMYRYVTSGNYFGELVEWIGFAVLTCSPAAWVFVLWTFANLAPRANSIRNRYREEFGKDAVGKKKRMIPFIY

Structure (SMILES) | Bacterial Biotransformation [1] | Bacterial Biotransformation [2] | Bacterial Biotransformation [3] | Bacterial Biotransformation [4] | Bacterial Biotransformation [5] | Bacterial Biotransformation [6] | Bacterial Biotransformation [7] | Bacterial Biotransformation [8] | Bacterial Biotransformation [9] | Bacterial Biotransformation [10] | Bacterial Biotransformation [11] | Bacterial Biotransformation [12] | Bacterial Biotransformation [13] | Bacterial Biotransformation [14] | Bacterial Biotransformation [15] | Bacterial Biotransformation [16] | Bacterial Biotransformation (Esterase) | Bacterial Biotransformation [17] | Bacterial Biotransformation [18] | Bacterial Biotransformation [19]
Nc1nc2ccc(OC(F)(F)F)cc2s1 [RILUZOLE] | Compound NOT metabolized | Compound NOT metabolized | Compound NOT metabolized | Compound metabolized | Compound metabolized | Compound NOT metabolized | Compound NOT metabolized | Compound NOT metabolized | Compound NOT metabolized | Compound NOT metabolized | Compound NOT metabolized | Compound NOT metabolized | Compound NOT metabolized | Compound NOT metabolized | Compound NOT metabolized |  |  |  |  | 
C[C@]12CCC(=O)C=C1[C@@H]1C[C@@H]1[C@H]1[C@@H]3[C@@H]4C[C@@H]4[C@@]4(CCC(=O)O4)[C@@]3(C)CC[C@@H]12 [DROSPIRENONE] | Compound NOT metabolized | Compound NOT metabolized |  |  |  |  |  |  |  |  |  | Compound metabolized |  | Compound NOT metabolized | Compound NOT metabolized | Compound NOT metabolized | Compound NOT metabolized | Compound NOT metabolized | Compound NOT metabolized | Compound metabolized
CN1C(C(=O)Nc2ccccn2)=C(O)c2sccc2S1(=O)=O [TENOXICAM] | Compound NOT metabolized |  | Compound NOT metabolized | Compound NOT metabolized | Compound NOT metabolized | Compound NOT metabolized | Compound NOT metabolized | Compound NOT metabolized | Compound NOT metabolized |  |  | Compound NOT metabolized |  | Compound NOT metabolized | Compound NOT metabolized |  |  |  |  | 
COc1ccc(CCN(C)CCCC(C#N)(c2ccc(OC)c(OC)c2)C(C)C)cc1OC (stereo not drawn) | Compound NOT metabolized |  | Compound NOT metabolized | Compound NOT metabolized | Compound NOT metabolized |  |  | Compound NOT metabolized | Compound NOT metabolized | Compound NOT metabolized | Compound metabolized |  |  | Compound NOT metabolized | Compound metabolized |  |  |  |  | 
N#Cc1ccc2[nH]cc(CCCCN3CCN(c4ccc5oc(C(N)=O)cc5c4)CC3)c2c1 [VILAZODONE] | Compound NOT metabolized |  | Compound metabolized | Compound metabolized | Compound metabolized | Compound NOT metabolized | Compound metabolized | Compound NOT metabolized | Compound NOT metabolized | Compound NOT metabolized | Compound NOT metabolized | Compound metabolized |  |  | Compound NOT metabolized |  |  |  |  | 
Cc1nc(-c2ccc(OCC(C)C)c(C#N)c2)sc1C(=O)O [FEBUXOSTAT] | Compound NOT metabolized |  | Compound NOT metabolized | Compound metabolized | Compound metabolized | Compound NOT metabolized | Compound NOT metabolized | Compound NOT metabolized |  | Compound NOT metabolized | Compound NOT metabolized |  | Compound NOT metabolized |  |  |  |  |  |  | 
